Laboratory results as given in patent US20060111258A1, “Solid N-acylalanine or a salt thereof” (AJINOMOTO CO., INC., priority 2003, published 2006).

Key:
[1] = Evaluation of moisture absorbability during preservation (automatic vapor absorption measurement); format: physicochemical; settings: average equilibrated moisture at humidity 70% RH, measurement temperature 25° C.
Protocol: 2. Evaluation of Moisture Absorbability During Preservation: The moisture absorbability was measured under the following measurement conditions and using an automatic vapor absorption measurement apparatus “BELSORP18” manufactured by BELL JAPAN, INC. Measurement conditions: X air thermostatic tank temperature: 50° C.; X measurement temperature: 25° C.; X MAX intake pressure: 0.9×Ps (Ps: saturated vapor pressure at measurement temperature); X MIN exhaust pressure: 0.1×Ps (Ps: saturated vapor pressure at measurement temperature); and X equilibration time: 5 min. Evaluation: Average equilibrated moisture of less than 5% at humidity 70% RH is ⊙, not less than 5% to less than 10% is ◯, not less than 10% to less than 15% is A, not less than 15% is x.

[2] = Evaluation of caking during preservation; format: physicochemical; settings: solid N-acylalanine salt; powder 25 g under 770 g spindle, 50° C., 24 hours, visual
Text: 3. Evaluation of Caking During Preservation […] […] 6. Evaluation of Caking During Preservation: The measurement apparatus and measurement conditions were the same as in the aforementioned 3.

For CCCCCCCCCCCC(=O)NC(C)C(=O)[O-].[K+] (racemic) [Example 1, lauroyl-DL-alanine potassium salt], the “moisture absorbability during preservation” value [1] was “⊚” and the caking during preservation [2] was “⊚”.
